Reference: PMC4269550, “Lead Optimization of a Pyrazole Sulfonamide Series of Trypanosoma bruceiN-Myristoyltransferase Inhibitors: Identification and Evaluation of CNS Penetrant Compounds as Potential Treatments for Stage 2 Human African Trypanosomiasis” (Journal of Medicinal Chemistry, 2014)
Where “and” joins values, the source holds several entries; their conditions need not be identical. Identical values can stand only once. Like-named read-outs stand apart in the source and are kept apart here. Values belong to the compound of their own block, whether it stands above or below them.

Experiments:
[1] = in vitro; format: cell-based, human; details: human
[2] = Intrinsic clearance (Cli), mouse liver microsomes; format: in vitro ADME; details: for Cli: mouse microsomes
[3] = system: MRC5, human lung fibroblast cells; assay: in vitro; format: cell-based
[4] = system: T. b. brucei, BSF427, VSG118; assay: Cell viability assay, trypanosome; format: cell-based
[5] = molecular target: T1, TbNMT (Trypanosoma brucei brucei, UniProt Q388H8); assay: NMT enzyme inhibition scintillation proximity assay (TbNMT); format: biochemical, T. brucei
T1 sequence (Q388H8 1-446): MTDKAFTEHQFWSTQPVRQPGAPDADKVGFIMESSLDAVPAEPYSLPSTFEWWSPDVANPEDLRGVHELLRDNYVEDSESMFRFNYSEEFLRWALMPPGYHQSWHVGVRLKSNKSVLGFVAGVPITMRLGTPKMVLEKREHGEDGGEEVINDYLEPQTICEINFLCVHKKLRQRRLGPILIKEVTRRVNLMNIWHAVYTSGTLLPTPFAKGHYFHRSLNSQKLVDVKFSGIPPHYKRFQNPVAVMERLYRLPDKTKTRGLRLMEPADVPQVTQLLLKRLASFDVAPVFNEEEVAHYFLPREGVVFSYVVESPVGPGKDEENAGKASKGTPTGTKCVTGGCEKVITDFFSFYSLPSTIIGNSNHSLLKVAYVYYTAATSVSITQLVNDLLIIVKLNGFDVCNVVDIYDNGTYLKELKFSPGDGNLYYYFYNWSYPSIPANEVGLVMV

[6] = system: HsNMT; format: biochemical, human; details: for IC50: mean of two or more determinations
[7] = mean of two or more determinations, read-out: TbNMT IC50

EC50 at 69 h [1]: > 50 µM
Cli (mouse) ([2]; mouse liver microsomes): 14 mL min^–1 g^–1
SMILES: Cc1nn(C)c(C)c1NS(=O)(=O)c1c(Cl)cc(Br)cc1Cl [compound 7, 4-bromo-2,6-dichloro-N-(1,3,5-trimethyl-1H-pyrazol-4-yl)-benzenesulfonamide]

SMILES: Cc1nn(C)c(C)c1NS(=O)(=O)c1c(Cl)cc(C#CCN2CCN(C)CC2)cc1Cl [compound 13]
EC50 at 69 h ([1]; MRC-5 EC50): > 50 µM

SMILES: Cc1nn(C)c(C)c1NS(=O)(=O)c1c(Cl)cc(CCCN2CCN(C)CC2)cc1Cl [compound 14]
Cli (mouse) ([2]; mouse liver microsomes): 1.7 mL min^–1 g^–1
Cli [2]: 1.7 mL/min/g

SMILES: Cc1nn(C)c(C)c1NS(=O)(=O)c1ccc(CCCN2CCN(C)CC2)cc1 [compound 15]
EC50 at 69 h ([1]; MRC-5 EC50): > 50 µM

SMILES: Cc1nn(C)c(C)c1NS(=O)(=O)c1c(Cl)cc(CCCC2CCN(C)CC2)cc1Cl [compound 16]
Cli (mouse) ([2]; mouse liver microsomes): 4.3 mL min^–1 g^–1
Cli [2]: 4.3 mL/min/g

SMILES: Cc1nn(C)c(C)c1NS(=O)(=O)c1ccc(CCCC2CCNCC2)cc1 [compound 19]
EC50 at 69 h ([1]; MRC-5 EC50): > 50 µM

SMILES: Cc1nn(C)c(C)c1N(C)[S+](=O)([O-])c1c(Cl)cc(-c2ccnc(N3CCNCC3)c2)cc1Cl [compound 29]
Cli (mouse) ([2]; mouse liver microsomes): 17 mL min^–1 g^–1

SMILES: Cc1nn(C)c(C)c1N(C)[S+](=O)([O-])c1ccc(-c2ccnc(N3CCNCC3)c2)cc1 [compound 30]
Cli (mouse) ([2]; mouse liver microsomes): 1.3 mL min^–1 g^–1

SMILES: Cc1nn(C)c(C)c1NS(=O)(=O)c1ccc(-c2cccc(CN3CCN(C)CC3)c2)cc1 [compound 31]
Cli (mouse) ([2]; mouse liver microsomes): 1.2 mL min^–1 g^–1

Cli (mouse) ([2]; mouse liver microsomes): 9.7 mL min^–1 g^–1
SMILES: Cc1nn(C)c(C)c1N(C)S(=O)(=O)c1ccc(-c2cccc(CN3CCN(C)CC3)c2)cc1 [compound 32]

SMILES: Cc1nn(C)c(C)c1N(C)S(=O)(=O)c1c(Cl)cc(CCCCCn2ccnc2)cc1Cl [compound 35]
Cli (mouse) ([2]; mouse liver microsomes): 2.0 mL min^–1 g^–1

EC50 ([1]; MRC-5 EC50): 7.8 µM
Cli (mouse) ([2]; mouse liver microsomes): 3.0 mL min^–1 g^–1
SMILES: Cc1nn(C)c(C)c1N(C)[S+](=O)([O-])c1c(Cl)cc(CCCCCCn2ccnc2)cc1Cl [compound 36]

SMILES: Cc1nn(C)c(C)c1N(C)S(=O)(=O)c1ccc(CCCC2CCN(C)CC2)cc1 [compound 38]
EC50 ([1]; read-out: MRC-5 EC50): 42 µM
Cli (mouse) ([2]; mouse liver microsomes): 3.7 mL min^–1 g^–1

SMILES: Cc1nn(C)c(C)c1N(CC(F)F)S(=O)(=O)c1c(Cl)cc(CCCC2CCN(C)CC2)cc1Cl [compound 41]
Cli (mouse) ([2]; mouse liver microsomes): 2.2 mL min^–1 g^–1
Cli [2]: 2.2 mL/min/g

SMILES: Cc1nn(C)c(C)c1N(C(F)F)[S+](=O)([O-])c1c(Cl)cc(CCCC2CCNCC2)cc1Cl [compound 43]
Cli (mouse) ([2]; mouse liver microsomes): 0.8 mL min^–1 g^–1

SMILES: Cc1nn(C)c(C)c1N(C(F)F)[S+](=O)([O-])c1c(Cl)cc(CCCN2CCN(C)CC2)cc1Cl [compound 44]
Cli (mouse) ([2]; mouse liver microsomes): 4.2 mL min^–1 g^–1

SMILES: Cc1nn(C)c(C)c1N(C(F)F)[S+](=O)([O-])c1c(Cl)cc(CCCCC2CCNCC2)cc1Cl [compound 45]
Cli (mouse) ([2]; mouse liver microsomes): 1.0 mL min^–1 g^–1

SMILES: Cc1nn(C)c(C)c1N(C(F)F)[S+](=O)([O-])c1c(Cl)cc(CCCOC2CCN(C)CC2)cc1Cl [compound 47]
Cli (mouse) ([2]; mouse liver microsomes): 3.7 mL min^–1 g^–1

SMILES: Cc1nn(C)c(C)c1N(C(F)F)S(=O)(=O)c1c(Cl)cc(CCCCCCN(C)C)cc1Cl [compound 48]
Cli (mouse) ([2]; mouse liver microsomes): 3.7 mL min^–1 g^–1

SMILES: Cc1nn(C)c(C)c1N(C(F)F)S(=O)(=O)c1c(Cl)cc(CCCOC[C@@H]2CCCN2C)cc1Cl [compound 49]
Cli (mouse) ([2]; mouse liver microsomes): 8.7 mL min^–1 g^–1

SMILES: Cc1nn(C)c(C)c1N(C(F)F)S(=O)(=O)c1c(Cl)cc(CCCOC[C@@H]2CCCCN2C)cc1Cl [compound 50]
Cli (mouse) ([2]; mouse liver microsomes): 9.8 mL min^–1 g^–1

SMILES: Cc1nn(C)c(C)c1N(C(F)F)S(=O)(=O)c1c(Cl)cc(CCCOC[C@H]2CCCCN2C)cc1Cl [compound 52]
Cli (mouse) ([2]; mouse liver microsomes): 14.2 mL min^–1 g^–1

SMILES: Cc1nn(C)c(C)c1NS(=O)(=O)c1ccc(-c2ccnc(N3CCNCC3)c2)cc1Cl [compound 54]
EC50 [3]: 250 nM

SMILES: Cc1cc(-c2ccnc(N3CCNCC3)c2)ccc1S(=O)(=O)Nc1c(C)nn(C)c1C [compound 57]
EC50 [3]: 530 nM
EC50 [4]: 4 nM

SMILES: Cc1nn(C)c(C)c1NS(=O)(=O)c1ccc(-c2ccnc(N3CCNCC3)c2)cc1F [compound 58]
EC50 ([1]; read-out: MRC-5 EC50): 0.53 µM
Cli (mouse) ([2]; Table S1, unit not given): < 0.5

SMILES: Cc1nn(C)c(C)c1NS(=O)(=O)c1c(F)cc(-c2ccnc(N3CCNCC3)c2)cc1F [compound 59]
EC50 [3]: 4700 nM
EC50 [4]: 5 nM
IC50 [5, 7]: 4 nM
Cli (mouse) ([2]; Table S1, unit not given): < 0.5

SMILES: Cc1nn(C)c(C)c1NS(=O)(=O)c1ccc(-c2ccnc(N3CCNC(C)C3)c2)cc1 (stereo not drawn) [compound 60]
EC50 ([1]; read-out: MRC-5 EC50): 0.79 µM
EC50 ([4]; Trypanosoma brucei): 4 nM

SMILES: Cc1nn(C)c(C)c1NS(=O)(=O)c1ccc(-c2ccnc(N3CCNC(c4ccccc4)C3)c2)cc1 (stereo not drawn) [compound 61]
EC50 ([1]; read-out: MRC-5 EC50): > 50 µM
EC50 ([4]; Trypanosoma brucei): > 10000 nM
IC50 [6]: 2460 nM
S = IC50 HsNMT/EC50 T. brucei ([6]; selectivity): < 1
IC50 [5]: 800 nM

SMILES: Cc1nn(C)c(C)c1NS(=O)(=O)c1ccc(-c2ccnc(N3CC(C)NC(C)C3)c2)cc1 (stereo not drawn) [compound 62]
EC50 ([1]; read-out: MRC-5 EC50): 2.69 µM
EC50 ([4]; Trypanosoma brucei): 30 nM

SMILES: Cc1nn(C)c(C)c1NS(=O)(=O)c1ccc(-c2ccnc(N3CCNC(C(C)C)C3)c2)cc1 (stereo not drawn) [compound 63]
EC50 ([1]; read-out: MRC-5 EC50): 8.16 µM
EC50 ([4]; Trypanosoma brucei): 140 nM

SMILES: Cc1nn(C)c(C)c1NS(=O)(=O)c1ccc(-c2ccnc(N3CCNC(Cc4ccccc4)C3)c2)cc1 (stereo not drawn) [compound 64]
EC50 ([1]; read-out: MRC-5 EC50): > 50 µM
EC50 ([4]; Trypanosoma brucei): > 10000 nM
IC50 [6]: 1510 nM
S = IC50 HsNMT/EC50 T. brucei ([6]; selectivity): < 1
IC50 [5]: 110 nM

SMILES: Cc1nn(C)c(C)c1N(C(F)F)[S+](=O)([O-])c1c(Cl)cc(CCCN2CCCN(C)CC2)cc1Cl [compound 65]
EC50 ([1]; read-out: MRC-5 EC50): 0.41 µM
EC50 ([4]; Trypanosoma brucei): 0.6 nM

SMILES: Cc1nn(C)c(C)c1N(C(F)F)S(=O)(=O)c1c(Cl)cc(CCCN2CCCNCC2)cc1Cl [compound 66]
EC50 [3]: 340 nM

SMILES: Cc1nn(C)c(C)c1N(C(F)F)S(=O)(=O)c1c(Cl)cc(CCCCCCn2ccnc2)cc1Cl [compound 67]
EC50 ([1]; read-out: MRC-5 EC50): 7.2 µM
EC50 ([4]; Trypanosoma brucei): 35 nM
S = IC50 HsNMT/EC50 T. brucei [6]: 4
IC50 [6]: 140 nM
IC50 [5]: 5 nM

SMILES: Cc1nn(C)c(C)c1N(C(F)F)[S+](=O)([O-])c1c(Cl)cc(CCCCCCn2ccnc2C)cc1Cl [compound 68]
EC50 ([1]; read-out: MRC-5 EC50): 0.91 µM
EC50 ([4]; Trypanosoma brucei): 5 nM

SMILES: CCc1nccn1CCCCCCc1cc(Cl)c([S+](=O)([O-])N(c2c(C)nn(C)c2C)C(F)F)c(Cl)c1 [compound 69]
EC50 ([1]; read-out: MRC-5 EC50): 7.7 µM
EC50 ([4]; Trypanosoma brucei): 150 nM

SMILES: Cc1nn(C)c(C)c1N(C(F)F)S(=O)(=O)c1c(Cl)cc(CCCCCCn2ccnc2C(C)C)cc1Cl [compound 70]
EC50 ([1]; read-out: MRC-5 EC50): 3.6 µM
EC50 ([4]; Trypanosoma brucei): 270 nM
S = IC50 HsNMT/EC50 T. brucei [6]: 2
IC50 [6]: 500 nM
IC50 [5]: 25 nM

SMILES: Cc1nn(C)c(C)c1N(C(F)F)S(=O)(=O)c1c(Cl)cc(CCCOC2CC3CCC(C2)N3C)cc1Cl (stereo not drawn) [compound 72]
EC50 [3]: 70 nM
EC50 [4]: 0.2 nM
IC50 [6]: 2 nM
S = IC50 HsNMT/EC50 T. brucei ([6]; selectivity): 10

SMILES: Cc1nn(C)c(C)c1N(C(F)F)S(=O)(=O)c1c(Cl)cc(-c2ccnc(N3CCNCC3)c2)cc1Cl [compound 74]
EC50 [3]: 140 nM
EC50 [4]: 3 nM

SMILES: Cc1nn(C)c(C)c1N(C(F)F)S(=O)(=O)c1c(Cl)cc(CCCCCCN2CCOCC2)cc1Cl [compound 79]
EC50 [3]: 12200 nM
EC50 [4]: 320 nM
IC50 [5, 7]: 55 nM

SMILES: CCN(C)CCCCCCc1cc(Cl)c(S(=O)(=O)N(c2c(C)nn(C)c2C)C(F)F)c(Cl)c1 [compound 83]
S = IC50 HsNMT/EC50 T. brucei ([6]; selectivity): 3 and 5

SMILES: Cc1nn(C)c(C)c1N(C(F)F)S(=O)(=O)c1c(Cl)cc(CCCOC[C@H]2CCCN2)cc1Cl [compound 87]
EC50 [3]: 3200 nM
IC50 [6]: 33 nM
S = IC50 HsNMT/EC50 T. brucei ([6]; selectivity): 7
IC50 [5, 7]: 3 nM
